Structures can show the parent of a compound that is named as a salt.
Tests used:
[1] = Plasma pharmacokinetics of irinotecan, SN-38, SN-38G and APC (HPLC, noncompartmental); conditions: for change of AUC when irinotecan administered immediately after epirubicin: Course 1 vs Course 2, paired t-test; for AUC in Course 1 compared to Course 2, higher by: second patient with elevated bilirubin (1.5 times ULN), irinotecan 80 mg m^−2; for SN-38G AUCt: mean ±s.d., dose standardised to 100 mg irinotecan
Experimental: (§1) Atropine was administered if diarrhoea, abdominal cramping or other symptoms of early cholinergic syndrome occurred within 1 h of receiving irinotecan. […] Dexamethasone and a 5-HT3 antagonist were administered to all patients as standard premedications unless contraindicated.
(§2) Samples were centrifuged immediately at room temperature, and plasma was separated and stored in aliquots at −20°C until analysis.
Irinotecan, SN-38 and APC concentrations were determined using a high-performance liquid chromatography assay. […] The fluorescence detector was operated at an excitation wavelength of 372 nm, irinotecan and APC were monitored at an emission wavelength of 425 nm, while SN-38 and the internal standard were monitored at 535 nm. SN-38 glucuronide (SN-38G) concentrations were estimated as increases in SN-38 concentrations after incubation of plasma samples with β-glucuronidase.
(§3) Pharmacokinetic parameters were determined by noncompartmental methods using WinNonlin (Version 3.0, Pharsight Corp., Mountain View, CA, USA). […] Pharmacokinetic parameters were compared using the paired t-test. A probability of P<0.05 was considered significant. The program S-PLUS for Windows (Version 6) (Insightful Corp., Seattle, WA, USA) was used for statistical analysis.

[2] = cited from earlier work; for AUC when given together with paclitaxel: attributed to vehicle Cremophor EL, ref Yamamoto et al, 1999; for AUC when given together with carboplatin: ref Okamoto et al, 1998
clinical = conditions: for half-life: t1/2 (elimination half-life); for half-life / clearance: mean ±s.d.; for clearance: plasma, intravenous, CL (total body clearance)
Experimental: as §1, §2
Samples were added to C8 solid-phase extraction tubes and extracts were dried on an evaporator. […] The fluorescence detector was set at excitation 480 nm and emission 560 nm.
as §3

[3] = design: method as in Vanhoefer et al, 2001; conditions: single-agent, weekly or every-3-week regimen; ref Vanhoefer et al, 2001; cited from earlier work
[4] = tested on: patients with advanced solid tumours; conditions: triple combination, Day 1 every 3 weeks; normal total serum bilirubin
Experimental: as §1

[5] = human, plasma, intravenous, 100 mg

CCc1c2c(nc3ccc(OC(=O)N4CCC(NCCCCC(=O)O)CC4)cc13)-c1cc3c(c(=O)n1C2)COC(=O)[C@]3(O)CC [APC]
change of AUC when irinotecan administered immediately after epirubicin [1]: increased significantly
APC AUCt ([1]; human, in vivo, 100 mg): 725 ± 460 ng·h/mL
AUC in Course 1 compared to Course 2, higher by [1]: > 60%

CCc1c2c(nc3ccc(O)cc13)-c1cc3c(c(=O)n1C2)COC(=O)[C@]3(O)CC [SN-38]
SN-38 AUCt ([1]; human, in vivo): 102 ± 54 ng·h/mL
SN-38 AUCt ([1]; human, in vivo, 100 mg): 78 ± 36 ng·h/mL
AUC when given together with paclitaxel [2]: increased
AUC when irinotecan is coadministered with doxorubicin ([2]; ref Dunphy et al, 2001): not increased
AUC when given together with carboplatin [2]: lower

COc1cccc2c1C(=O)c1c(O)c3c(c(O)c1C2=O)C[C@@](O)([C@@H](O)CO)C[C@@H]3O[C@H]1C[C@H](N)[C@@H](O)[C@H](C)O1 [Epi-ol, epirubicinol]
Epi-ol AUCt (clinical; human, in vivo, 100 mg): 788 ± 482 ng·h/mL

CCc1c2c(nc3ccc(OC(=O)N4CCC(N5CCCCC5)CC4)cc13)-c1cc3c(c(=O)n1C2)COC(=O)[C@]3(O)CC [irinotecan, Irinotecan hydrochloride]
frequency of grade 3/4 late diarrhoea [3]: > 20%
AUC(0-inf) [1, 5]: 2960 ± 1020 ng·h/mL
AUC(0-t) [1, 5]: 2870 ± 916 ng·h/mL
recommended phase II dose (MTD) [4]: 110 mg m^−2
AUC when given together with paclitaxel [2]: increased
share of irinotecan and its metabolites excreted via the biliary tract [2]: Over 60%
doses up to which pharmacokinetics is linear ([2]; ref Mathijssen et al, 2001): up to 180 mg m^−2
AUC when given together with carboplatin [2]: lower
share of the administered irinotecan dose converted to SN-38 ([2]; ref Slatter et al, 2000): less than 10%

CCc1c2c(nc3ccc(O[C@@H]4O[C@H](C(=O)O)[C@@H](O)[C@H](O)[C@H]4O)cc13)-c1cc3c(c(=O)n1C2)COC(=O)[C@]3(O)CC [SN-38G, SN-38 glucuronide]
change of AUC when irinotecan administered immediately after epirubicin [1]: increased significantly
SN-38G AUCt ([1]; Irinotecan → epirubicin (Course 2)): 378 ± 223 ng·h/mL
SN-38G AUCt ([1]; Irinotecan+epirubicin (Course 1)): 558 ± 480 ng·h/mL
AUC in Course 1 compared to Course 2, higher by [1]: > 60%

COc1cccc2c1C(=O)c1c(O)c3c(c(O)c1C2=O)C[C@@](O)(C(=O)CO)C[C@@H]3O[C@H]1C[C@H](N)[C@@H](O)[C@H](C)O1 [epirubicin]
Vd (apparent volume of distribution) (clinical; human, in vivo): 2563 ± 1122 L
AUC(0-inf) (clinical; human, in vivo, 100 mg): 910 ± 368 ng·h/mL
AUC(0-t) (clinical; human, in vivo, 100 mg): 723 ± 296 ng·h/mL
Vd (clinical; human, in vivo, Vd (apparent volume of distribution)): 3480 ± 1940 L
half-life (clinical; human, in vivo, Irinotecan → epirubicin (Course 2)): 960 ± 468 min
half-life (clinical; human, in vivo, Irinotecan+epirubicin (Course 1)): 1390 ± 648 min
clearance (clinical; human, Irinotecan → epirubicin (Course 2)): 2080 mL/min
clearance (clinical; human, Irinotecan+epirubicin (Course 1)): 1830 mL/min
effect of sequence of drug administration on pharmacokinetic parameters (clinical; in vivo): not affected by the sequence of drug administration

— PMC2376925 (British Journal of Cancer, 2003)
